Experimental findings from PubChem BioAssay AID330 (DTP/NCI, 2004) are described below.

For the test, the system named is P388 leukemia ip, CD2F1 mice, survival T/C. The experiment in a line: NCI In Vivo Anticancer Drug Screen. Data for tumor model P388 Leukemia (intraperitoneal) in CD2F1 (CDF1) mice. Conditions: endpoint: median survival time, higher = longer survival. A digest of the protocol: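 Mice carrying the transplanted tumor received test compound or vehicle. Survival was recorded in each group, and the value is the treated-group measurement divided by that of the vehicle-treated control group.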

Where [1] appears, read: dose: 50.0 mg/kg/injection, schedule: Q01DX009 (ip), vehicle: Klucel (hydroxypropylcellulose) (HPC).
[2] abbreviates: dose: 100.0 mg/kg/injection, schedule: Q01DX009 (ip), vehicle: Klucel (hydroxypropylcellulose) (HPC).
The mark [3] stands for this setting: dose: 12.5 mg/kg/injection, schedule: Q01DX005 (ip), vehicle: Klucel (hydroxypropylcellulose) (HPC).
[4] abbreviates: dose: 25.0 mg/kg/injection, schedule: Q01DX005 (ip), vehicle: Klucel (hydroxypropylcellulose) (HPC).
[5] abbreviates: dose: 50.0 mg/kg/injection, schedule: Q01DX005 (ip), vehicle: Klucel (hydroxypropylcellulose) (HPC).
Where [6] appears, read: dose: 200.0 mg/kg/injection, schedule: Q01DX005 (ip), vehicle: Klucel (hydroxypropylcellulose) (HPC).
[7] abbreviates: dose: 60.0 mg/kg/injection, schedule: Q01DX005 (ip), vehicle: saline with Tween-80.
The mark [8] stands for this setting: dose: 120.0 mg/kg/injection, schedule: Q01DX005 (ip), vehicle: saline with Tween-80.
[9] abbreviates: dose: 240.0 mg/kg/injection, schedule: Q01DX005 (ip), vehicle: saline with Tween-80.
[10] abbreviates: dose: 100.0 mg/kg/injection, schedule: Q01DX005 (ip), vehicle: Klucel (hydroxypropylcellulose) (HPC).
The mark [11] stands for this setting: dose: 6.25 mg/kg/injection, schedule: Q01DX005 (ip), vehicle: Klucel (hydroxypropylcellulose) (HPC).
Setting [12] is: dose: 100.0 mg/kg/injection, schedule: Q04DX002 (ip), vehicle: saline with Tween-80.
[13] abbreviates: dose: 60.0 mg/kg/injection, schedule: Q01DX005 (ip), vehicle: Klucel (hydroxypropylcellulose) (HPC).
The mark [14] stands for this setting: dose: 120.0 mg/kg/injection, schedule: Q01DX005 (ip), vehicle: Klucel (hydroxypropylcellulose) (HPC).
Where [15] appears, read: dose: 240.0 mg/kg/injection, schedule: Q01DX005 (ip), vehicle: Klucel (hydroxypropylcellulose) (HPC).
[16] abbreviates: dose: 6.25 mg/kg/injection, schedule: Q01DX005 (ip), vehicle: saline with Tween-80.
Setting [17] is: dose: 12.5 mg/kg/injection, schedule: Q01DX005 (ip), vehicle: saline with Tween-80.

Each structure is given as a SMILES string. Values joined by “and” are separate entries in the source; they are usually repeats but may differ in a detail not shown here. Equal entries are not always repeated. Inconclusive results and toxic doses are left out.

In the case of `Cc1cc(C)cc(C(O)(CBr)CC(C)(Cl)Cl)c1` (stereo unspecified), the T/C reads like this: (dose: 50.0 mg/kg/injection, schedule: Q01DX009 (ip), vehicle: saline + alcohol) 114 % of control; (dose: 100.0 mg/kg/injection, schedule: Q01DX009 (ip), vehicle: saline + alcohol) 119 % of control; (dose: 200.0 mg/kg/injection, schedule: Q01DX009 (ip), vehicle: saline + alcohol) 120 % of control.
With `CCN(CC)C1CS(=O)(=O)OC2=C1CCCc1ccccc12` (stereo unspecified), the T/C was 102 % of control (dose: 25.0 mg/kg/injection, schedule: Q01DX009 (ip), vehicle: Klucel (hydroxypropylcellulose) (HPC)); 104 % of control under setting [1]; 95 % of control under setting [2].
`Cn1cnc2cc(N3CCCCC3)c(Nc3ccc([N+](=O)[O-])cc3[N+](=O)[O-])cc2c1=O`: the T/C reads like this: (dose: 100.0 mg/kg/injection, schedule: Q04DX003 (ip), vehicle: Klucel (hydroxypropylcellulose) (HPC)) 103 % of control; (dose: 200.0 mg/kg/injection, schedule: Q04DX003 (ip), vehicle: Klucel (hydroxypropylcellulose) (HPC)) 98 % of control; (dose: 400.0 mg/kg/injection, schedule: Q04DX003 (ip), vehicle: Klucel (hydroxypropylcellulose) (HPC)) 95 % of control.
Turning to `CC(C)c1ccccc1N1C(=O)CC(Sc2ccccc2N)C1=O` (stereo unspecified), the T/C by setting is: under setting [3], 107 % of control; under setting [4], 102 % of control; under setting [5], 105 % of control and 90 % of control; under setting [6], 90 % of control.
As for `COc1ccc(C2COc3cc4c(cc3C2)OCO4)cc1` (stereo unspecified), the T/C runs as follows: under setting [7], 98 % of control; under setting [8], 98 % of control; under setting [9], 96 % of control.
Turning to `Cc1cccc(C(=O)N2C(=O)Cc3ccccc32)c1`, the T/C was 99 % of control (dose: 100.0 mg/kg/injection, schedule: Q01DX001 (ip), vehicle: Klucel (hydroxypropylcellulose) (HPC)) and 94 % of control (dose: 200.0 mg/kg/injection, schedule: Q01DX001 (ip), vehicle: Klucel (hydroxypropylcellulose) (HPC)).
Consider `Cc1ccc(S(=O)(=O)C23C(N=NC2(C)C)C3(C)C)cc1` (stereo unspecified), for which the T/C was 103 % of control under setting [5], 103 % of control under setting [10] and 100 % of control under setting [6].
As to `COc1ccc(/C=C\C(=O)c2ccc(C(=O)/C=C/c3ccc(OC)cc3OC)cc2)c(OC)c1`, the T/C runs as follows: (dose: 12.5 mg/kg/injection, schedule: Q04DX003 (ip), vehicle: saline with Tween-80) 100 % of control; (dose: 25.0 mg/kg/injection, schedule: Q04DX003 (ip), vehicle: saline with Tween-80) 102 % of control; (dose: 50.0 mg/kg/injection, schedule: Q04DX003 (ip), vehicle: saline with Tween-80) 92 % of control.
Take `CC1(c2ccco2)NC(=O)N(Cl)C1=O` (stereo unspecified): the T/C (dose: 100.0 mg/kg/injection, schedule: Q04DX003 (ip), vehicle: saline) was 104 % of control and the T/C (dose: 200.0 mg/kg/injection, schedule: Q04DX003 (ip), vehicle: saline) is 90 % of control.
For `O=S(=O)(c1cccc(N=C=S)c1)c1cccc(N=C=S)c1`, the T/C is, setting by setting: under setting [11], 123 % of control; under setting [3], 117 % of control and 123 % of control; under setting [4], 123 % of control; under setting [5], 103 % of control.
On to `COc1ccc2c(c1)CCC1=C2N=CN2CCN=C12`, for which the T/C under setting [12] was 102 % of control.
As for `Clc1ccc2c(nnn2OC2CCCC2)c1Cl`, the T/C is 88 % of control (dose: 50.0 mg/kg/injection, schedule: Q01DX009 (ip), vehicle: saline with Tween-80); 94 % of control (dose: 100.0 mg/kg/injection, schedule: Q01DX009 (ip), vehicle: saline with Tween-80); 94 % of control (dose: 200.0 mg/kg/injection, schedule: Q01DX009 (ip), vehicle: saline with Tween-80).
Regarding `O=C(O)CCSC(=S)NN1CCN(NC(=S)SCCC(=O)O)CC1`, the T/C is, setting by setting: under setting [13], 108 % of control; under setting [14], 100 % of control; under setting [15], 96 % of control.
Take `C=C(Br)S(=O)(=O)OCCCl`: the T/C was 105 % of control under setting [16] and 104 % of control under setting [17].
Consider `O=P(CCP(=O)(c1ccccc1)c1ccccc1)(c1ccccc1)c1ccccc1.[Cl][Sn]([Cl])([c]1ccccc1)[c]1ccccc1`, for which the T/C runs as follows: (dose: 0.79 mg/kg/injection, schedule: Q01DX005 (ip), vehicle: Klucel (hydroxypropylcellulose) (HPC)) 116 % of control and 117 % of control; (dose: 1.56 mg/kg/injection, schedule: Q01DX005 (ip), vehicle: Klucel (hydroxypropylcellulose) (HPC)) 114 % of control and 119 % of control; (dose: 3.12 mg/kg/injection, schedule: Q01DX005 (ip), vehicle: Klucel (hydroxypropylcellulose) (HPC)) 111 % of control and 119 % of control; under setting [11], 113 % of control.
With `N/C(=N\OC(=O)Nc1ccccc1)c1ccccc1`, the T/C under setting [7] is 97 % of control, the T/C under setting [8] is 94 % of control and the T/C under setting [9] was 91 % of control.
In the case of `Cc1c([N+](=O)[O-])/c(=N/O)c2c(=O)c([N+](=O)[O-])coc2n1O`, the T/C is, setting by setting: under setting [1], 108 % of control; under setting [2], 99 % of control; (dose: 200.0 mg/kg/injection, schedule: Q01DX009 (ip), vehicle: Klucel (hydroxypropylcellulose) (HPC)) 90 % of control.
For `CC(=O)OCC1OC(Nc2[nH]c(=O)[nH]c(=O)c2N=O)C(OC(C)=O)C(OC(C)=O)C1OC(C)=O` (stereo unspecified), the T/C is 111 % of control (dose: 60.0 mg/kg/injection, schedule: Q01DX005 (ip), vehicle: saline); 103 % of control (dose: 120.0 mg/kg/injection, schedule: Q01DX005 (ip), vehicle: saline); 103 % of control (dose: 240.0 mg/kg/injection, schedule: Q01DX005 (ip), vehicle: saline).
Consider `NC(CCC(N)C(=O)c1ccccc1)C(=O)c1ccccc1` (stereo unspecified), for which the T/C under setting [7] was 98 % of control, the T/C under setting [8] was 101 % of control and the T/C under setting [9] is 93 % of control.
On to `CC(=O)N(c1nc2ccccc2s1)N1C(=O)c2ccccc2C1=O`, for which the T/C reads like this: under setting [13], 98 % of control; under setting [14], 94 % of control; under setting [15], 90 % of control.
With `COc1cc2ccnc(CCCc3nccc4cc(OC)c(OC)cc34)c2cc1OC`, the T/C reads like this: (dose: 25.0 mg/kg/injection, schedule: Q04DX002 (ip), vehicle: Klucel (hydroxypropylcellulose) (HPC)) 101 % of control; (dose: 50.0 mg/kg/injection, schedule: Q04DX002 (ip), vehicle: Klucel (hydroxypropylcellulose) (HPC)) 95 % of control; (dose: 100.0 mg/kg/injection, schedule: Q04DX002 (ip), vehicle: Klucel (hydroxypropylcellulose) (HPC)) 101 % of control and 104 % of control.
Turning to `c1cnc2c(c1)-n1cccc1C1(CCCCC1)NN2`, the T/C (dose: 100.0 mg/kg/injection, schedule: Q01DX001 (ip), vehicle: saline with Tween-80) is 108 % of control; the T/C (dose: 200.0 mg/kg/injection, schedule: Q01DX001 (ip), vehicle: saline with Tween-80) was 93 % of control; the T/C (dose: 400.0 mg/kg/injection, schedule: Q01DX001 (ip), vehicle: saline with Tween-80) is 93 % of control.
On to `O=C(O)/C=C/c1c(-c2ccccc2)sc2ccccc2c1=O`, for which the T/C is 93 % of control under setting [12]; 97 % of control (dose: 200.0 mg/kg/injection, schedule: Q04DX002 (ip), vehicle: saline with Tween-80); 97 % of control (dose: 400.0 mg/kg/injection, schedule: Q04DX002 (ip), vehicle: saline with Tween-80).
In the case of `O=C(O)C1CCC(=O)N1C(=O)OCc1ccccc1` (stereo unspecified), the T/C (dose: 100.0 mg/kg/injection, schedule: Q04DX003 (ip), vehicle: saline with Tween-80) is 95 % of control; the T/C (dose: 200.0 mg/kg/injection, schedule: Q04DX003 (ip), vehicle: saline with Tween-80) was 90 % of control; the T/C (dose: 400.0 mg/kg/injection, schedule: Q04DX003 (ip), vehicle: saline with Tween-80) is 90 % of control.
With `CC1CCCN(c2cc(N(C)C)c([N+](=O)[O-])cc2F)C1` (stereo unspecified), the T/C by setting is: under setting [5], 99 % of control; under setting [10], 107 % of control; under setting [6], 105 % of control.
Take `O=C1CCC(=O)N1SC(Cl)(Cl)Cl`: the T/C by setting is: under setting [16], 109 % of control; under setting [17], 107 % of control; (dose: 25.0 mg/kg/injection, schedule: Q01DX005 (ip), vehicle: saline with Tween-80) 100 % of control.
